Experiments:
[1] = Plasma pharmacokinetics of E5564 after single bolus intravenous injection; type: in vivo, dogs; details: single bolus i.v.
Protocol: FIG. 3 is a graph showing the plasma levels of E5564 after a single bolus injection. After bolus administration of 0.1 mg/kg E5564 (∘), 0.3 mg/kg E5564 (□), and 1 mg/kg E5564 (▪), blood was drawn and analyzed for E5564 concentration by extraction and analysis by HPLC. Each value represents the mean±S.E.M. of three animals. No drug was detectable in samples drawn prior to dosing.
This long-term presence of unmodified E5564 in blood initially led us to believe that active drug was likely present for very long periods of time after cessation of drug administration.

LPS endotoxin = assay: Pharmacodynamic analysis of E5564 in vivo: LPS challenge in dogs, plasma TNF-α by bioassay; parameters: species or system beagle dogs; details: for TNF-α at 1 hour / TNF-α at 2 hours: plasma; for TNF-α at 1 hour: 1 h after LPS 300 ng/kg i.v.; for TNF-α at 2 hours: 2 h after LPS 300 ng/kg i.v.
Protocol: FIG. 1 is a graph showing the anti-endotoxin activity of E5564 after a single bolus injection. LPS endotoxin (300 ng/kg) was injected intravenously into untreated dogs (∘) or simultaneously with 0.1 mg/kg E5564 (Δ) one hour after E5564 administration (□) or three hours after E5564 administration (●). Blood was drawn and analyzed for TNF-α concentration by bioassay, as is described in the Materials and Methods section, below. Each value represents the mean±S.E.M. of four animals.
In general, the candidate antagonist is administered to a test species of animal, and an appropriate dose of endotoxin (lipopolysaccharide (LPS)) is administered to test the ability of the candidate antagonist to block the effects of endotoxin. Some of the experiments described below use an in vivo challenge of LPS given intravenously both during and after intravenous infusion of E5564. Activity of an antagonist can also be assayed ex vivo by removing blood samples from animals treated with the candidate antagonist and testing that blood to determine if the drug is active and/or present in sufficient quantities to inhibit cellular activation by LPS. In both assays, activity of the antagonist is quantitated by analysis of the cytokines induced by LPS administration. In addition, other physiological symptoms of endotoxin poisoning can be used as readouts of activity. Studies described herein use TNF-α and/or IL-6 as readouts of cellular activation, but a variety of other cytokines and cellular mediators can also be used for this purpose.
As is shown in FIG. 1 and Table 1, delivery of 300 ng/kg of LPS into beagle dogs (“control” in FIG. 1) elicits a strong, reproducible response, as measured by levels of plasma TNF-α. […] This short activity lifetime (i.e., pharmacodynamic half-life) is an unexpected result, as the pharmacokinetic half-life of E5564 is extremely long in comparison (see below). Thus, while the unmodified (unmetabolized) drug appears to remain in circulation for a relatively long period of time, it loses activity. Because of this unexpected discovery, we have chosen to administer E5564 by infusion.
E5564 was synthesized by Eisai Research Institute of Boston, Andover, Mass., U.S.A. E5564 drug product was manufactured at the Eisai Preclinical Laboratory (Tsukuba, Japan) by dissolving 35.4 mg of drug substance in 52.1 ml 0.01 N NaOH, stirring for one hour at room temperature, and diluting into phosphate-buffered lactose. After adjusting the pH to 7.3 and diluting to a final concentration of 0.1 mg/ml E5564, the solution was filter-sterilized and lyophilized.
Escherichia coli LPS (Serotype 0111:B4; phenol extracted, Cat. # L-2630) was purchased from Sigma Chemical Co. Ltd., St. Louis, Mo., U.S.A. Lyophylized E5564 was solubilized in 5 ml of sterile water (Otsuka Pharm. Co. Ltd., Tokyo, Japan). LPS was weighed to an accuracy of 1/10 mg and solubilized in 5% glucose (Otsuka Pharm. Co. Ltd., Tokyo, Japan). The LPS solution was sonicated with a bath-type sonicator for 15 minutes after which aliquots were immediately prepared and stored at −20° C. Prior to use, the solution was sonicated for one or two minutes, and then dilutions were prepared in 5% glucose.
Nine month-old beagles were obtained from Kawashima-shoji Co. Ltd., Gifu, Japan) and housed in stainless steel wire cages (W 800 mm×D 680 mm×H 680 mm; one dog per cage) in a room with a constant temperature of 20-24° C., humidity of 45-65%, and 12 hour light-dark cycle. The animals were provided with pellet food (DS, Oriental Yeast Co., Tokyo, Japan) and water ad libitum. LPS endotoxin (300 ng/0.1 ml/kg) was injected into the vein of the right foreleg at a rate of 1-2 ml/minute, and E5564 was injected into the vein of the left foreleg at a rate of 10-20 ml/minute.
Immediately before or 1, 2, or 4 hours after intravenous injection of LPS and E5564, 1.5 ml of blood was drawn from the left cephalic vein. […]

[2] = 0.1 mg/kg E5564 bolus one hour before LPS
[3] = 0.1 mg/kg E5564 bolus three hours before LPS

## CCCCCC/C=C\CCCCCCCCCC(=O)N[C@H]1[C@H](OC[C@H]2O[C@H](OP(=O)(O)O)[C@H](NC(=O)CC(=O)CCCCCCCCCCC)[C@@H](OCCCCCCCCCC)[C@@H]2O)O[C@H](COC)[C@@H](OP(=O)(O)O)[C@@H]1OCC[C@@H](CCCCCCC)OC [E5564, α-D-Glucopyranose, 3-O-decyl-2-deoxy-6-O-[2-deoxy-3-O-[(3R)-3-methoxydecyl)-6-O-methyl-2-[[(11Z)-1-oxo-11-octadecenyl)amino]-4-O-phosphono-β-D-glucopyranosyl]-2-[(1,3-dioxotetradecyl)amino]-,1-(dihydrogen phosphate)]
[1]; 0.1 mg/kg dose
  AUC: 71.8255 ± 1.981 µg·h/mL
  T½: 41.7 ± 2.7 h
[1]; 0.3 mg/kg
  AUC: 270.8972 µg·h/mL
  T½: 50.4 ± 2.2 h
[1]; 1 mg/kg
  AUC: 743.5446 µg·h/mL
  T½: 46.4 ± 2.7 h
LPS endotoxin; 0.1 mg/kg E5564 given at the same time as LPS 300 ng/kg
  Blocking of LPS challenge (plasma TNF-α): completely effective
LPS endotoxin; E5564 one hour before LPS
  Response to LPS (% of control): 0 % of control
  Sum of TNF-α (AUC): 0 units/ml
LPS endotoxin; E5564 simultaneously with LPS
  Inhibition of LPS response: 100
  Response to LPS (% of control): 0 % of control
LPS endotoxin; E5564 three hours before LPS
  Response to LPS (% of control): 52 % of control
LPS endotoxin; LPS administered three hours after 0.1 mg/kg E5564
  Activity of the endotoxin antagonist remaining: about 48 % of its original activity
LPS endotoxin; [2]
  TNF-α at 1 hour: 0 units/ml
  TNF-α at 2 hours: 0 units/ml
LPS endotoxin; 0.1 mg/kg E5564 bolus simultaneously with LPS, four dogs
  TNF-α at 1 hour: 0 units/ml
LPS endotoxin; [3]
  TNF-α at 1 hour: 1353 ± 340 units/ml
  TNF-α at 2 hours: 190 ± 113 units/ml
LPS endotoxin; 0.1 mg/kg E5564 bolus simultaneously with LPS
  TNF-α at 2 hours: 0 units/ml

— patent US20050215517A1, “Use of an anti-endotoxin drug in the prevention and treatment of disease” (priority 1999, published 2005)
